The text below walks through data of patent US20240382596A1, “COMPOSITION OF VANCOMYCIN AQUEOUS SOLUTION” (HAINAN POLY PHARM. CO., LTD., priority 2021, published 2024).

Data set [1] in a line: Stability of vancomycin eye drops, HPLC relevant substances. It is filed as physicochemical. As to conditions: eye drops study, 0 day. Here is the method:
(§1) The embodiments are intended to facilitate understanding of the invention and should not be deemed as a limitation to the invention. • HPLC analysis conditions of the following embodiments were: • Chromatographic column: Welch Ultimate XB-C18 (250×4.6 mm, 5 μm) • Detection wavelength: 280 nm; • Column temperature: 30° C.; • Flow rate: 2.0 mL/min; • Injection volume: 20 μL; • Mobile phase: • Solution A: 4.0 mL of triethylamine was precisely measured, and water was added to bring the total volume to 2000 mL, and the pH of the solution was further adjusted to 3.20 with phosphoric acid; • Solution B: Acetonitrile-tetrahydrofuran-solution A=55−10−935, the pH was adjusted to 3.20 with phosphoric acid; • Solution C: acetonitrile-tetrahydrofuran-solution A=290−10−700, the pH was adjusted to 3.20 by phosphoric acid; • Elution gradient: […]
After being placed under accelerated conditions of 25° C./60% RH for 30 days, relevant substances were sampled and detected. The result is shown in Table 7, the percentage of impurities peak area is calculated by peak area normalization method.

The nature of data set [2]: Stability of vancomycin injection, HPLC relevant substances. It is filed as physicochemical. Conditions: injection study, 0 day. The procedure: as §1
After being placed under accelerated conditions of 25° C./60% RH for 30 days, relevant substances were sampled and detected.

The nature of data set [3]: PK test of vancomycin injection. The data set is classed as in vivo. As to conditions: SD rats following a single intrathecal dose; range over G1-G3. The procedure:
Nine male SD rats were divided into three groups. […] Plasma samples were collected at 0.083, 0.167, 0.25, 0.5, 1, 2, 4, 6, 8, 12, and 24 h post-dosing in each group. The concentration of vancomycin in plasma samples was detected using an established LC-MS/MS method.

Take Vancomycin hydrochloride: in data set [1], the CDP-1 is on record as 0.32%, the RS2 is 0.53% and the “Vancomycin HCl” value was 95.81%. Besides, in data set [2], the CDP-1 is reported as 0.32%, the RS2 was 0.55% and the “Vancomycin HCl” value amounted to 95.19%. Further, the “elimination half-life (T½)” value in data set [3] was in the range of 40.7 to 50.5 min.
